Results taken from patent publication US20250171457A1, “NITROGEN-CONTAINING HETEROCYCLIC COMPOUND HAVING NRF2 ACTIVATION EFFECT” (CHUGAI SEIYAKU KABUSHIKI KAISHA, priority 2022, published 2025).

System: Nrf2 transcriptional activity (pARE-Luc reporter) in HepG2 cells
Assay: In vitro Nrf2 transcriptional activity measurement by ARE-dependent reporter assay in HepG2 cell
Type: cell-based, human
Summary of the method: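 HepG2 cells transfected with pGL4.37 (pARE-Luc), replated onto compound and incubated 4 h at 37° C; luciferase read by Bright-Glo luminescence. Response normalized to 100% set by a reference compound at 3.75 μM; EC50 from dose-response curve.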

[1] = Homo sapiens, HepG2 cells transfected with pARE-Luc, 4 hours at 37° C., luciferase activity of Example 1-54 or Example 17-23 at 3.75 μM defined as 100%

| Compound | EC50 [1] [nM] | EC50 (HepG2 cells, pARE-Luc reporter, 4 hours, 100% = Example 1-54 or Example 17-23 at 3.75 μM (repeat print of Table 20-1)) [nM] |
| --- | --- | --- |
| Cc1c(C(CC(=O)O)c2cccc3c2CCN(C(=O)c2c(Cl)cc(-c4cnn(C)c4)cc2Cl)C3)ccc2c1nnn2C (centres unmarked) [Compound 17-15, 3-[2-[2,6-Dichloro-4-(1-methylpyrazol-4-yl)benzoyl]-3,4-dihydro-1H-isoquinolin-5-yl]-3-(1,4-dimethylbenzotriazol-5-yl)propanoic acid] | 58 | – |
| COCCN1CCC2(C1)CN(c1cc(Cl)c(C(=O)N3COc4c(cccc4-c4cc(N5C6CCC5COC6)c(C(=O)O)cc4F)C3)c(Cl)c1)C2 [Compound 8-1, 4-[3-[2,6-Dichloro-4-[7-(2-methoxyethyl)-2,7-diazaspiro[3.4]octan-2-yl]benzoyl]-2,4-dihydro-1,3-benzoxazin-8-yl]-5-fluoro-2-(3-oxa-8-azabicyclo[3.2.1]octan-8-yl)benzoic acid] | 1.6 | – |
| C[C@H](O)Cn1cc(-c2cc(Cl)c(C(=O)N3COc4c(cccc4-c4ccc(C(=O)O)c(N5CCOCC5)c4)C3)c(Cl)c2)cn1 [Compound 15-2, 4-[3-[2,6-Dichloro-4-[1-[(2S)-2-hydroxypropyl]pyrazol-4-yl]benzoyl]-2,4-dihydro-1,3-benzoxazin-8-yl]-2-morpholin-4-ylbenzoic acid] | 21 | – |
| Cn1cc(-c2cc(Cl)c(C(=O)N3COc4c(cccc4-c4cc(N5CC6CCC(C5)O6)c(C(=O)O)cc4F)C3)c(Cl)c2)cn1 [Compound 12-2, 4-[3-[2,6-Dichloro-4-(1-methylpyrazol-4-yl)benzoyl]-2,4-dihydro-1,3-benzoxazin-8-yl]-5-fluoro-2-(8-oxa-3-azabicyclo[3.2.1]octan-3-yl)benzoic acid] | 2.6 | – |
| Cc1nc(N2CC3(C2)OCC(C)(C)CO3)cc(Cl)c1C(=O)N1COc2c(cccc2-c2cc(N3C4CCC3COC4)c(C(=O)O)cc2F)C1 [Compound 19-9, 4-[3-[4-Chloro-6-(7,7-dimethyl-5,9-dioxa-2-azaspiro[3.5]nonan-2-yl)-2-methylpyridine-3-carbonyl]-2,4-dihydro-1,3-benzoxazin-8-yl]-5-fluoro-2-(3-oxa-8-azabicyclo[3.2.1]octan-8-yl)benzoic acid] | – | 1.4 |
| Cc1cc(N2C[C@@H](C)N(C)C[C@H]2C)cc(Cl)c1C(=O)N1COc2c(cccc2-c2cc(N3C4CCC3COC4)c(C(=O)O)cc2F)C1 [Compound 19-4, 4-[3-[2-Chloro-6-methyl-4-[(2R,5R)-2,4,5-trimethylpiperazin-1-yl]benzoyl]-2,4-dihydro-1,3-benzoxazin-8-yl]-5-fluoro-2-(3-oxa-8-azabicyclo[3.2.1]octan-8-yl)benzoic acid] | 1.9 | – |
| CN(Cc1ccon1)c1cc(-c2cccc3c2OCN(C(=O)c2c(Cl)cc(-c4cnn(C)c4)cc2Cl)C3)c(F)cc1C(=O)O [Compound 12-1, 4-[3-[2,6-Dichloro-4-(1-methylpyrazol-4-yl)benzoyl]-2,4-dihydro-1,3-benzoxazin-8-yl]-5-fluoro-2-[methyl(1,2-oxazol-3-ylmethyl)amino] benzoic acid] | 11 | – |
| CN1CCC2(CC1)CN(c1cc(Cl)c(C(=O)N3COc4c(cccc4-c4cc(N5C6CCC5COC6)c(C(=O)O)cc4F)C3)c(Cl)c1)C2 [Compound 19-17, 4-[3-[2,6-Dichloro-4-(7-methyl-2,7-diazaspiro[3.5]nonan-2-yl)benzoyl]-2,4-dihydro-1,3-benzoxazin-8-yl]-5-fluoro-2-(3-oxa-8-azabicyclo[3.2.1]octan-8-yl)benzoic acid] | 6.1 | – |
| O=C(O)c1cc(F)c(-c2cccc3c2OCN(C(=O)c2c(Cl)cc(OC[C@H]4CCCO4)cc2Cl)C3)cc1N1C2CCC1COC2 [Compound 4-34, 4-[3-[2,6-Dichloro-4-[[(2R)-oxolan-2-yl]methoxy]benzoyl]-2,4-dihydro-1,3-benzoxazin-8-yl]-5-fluoro-2-(3-oxa-8-azabicyclo[3.2.1]octan-8-yl)benzoic acid] | 3.8 | – |
| O=C(O)c1cc(F)c(-c2cccc3c2OCN(C(=O)c2c(Cl)cc(N4CC5(COC5)C4)cc2Cl)C3)cc1N1C2CCC1COC2 [Compound 4-6, 4-[3-[2,6-Dichloro-4-(2-oxa-6-azaspiro[3.3]heptan-6-yl)benzoyl]-2,4-dihydro-1,3-benzoxazin-8-yl]-5-fluoro-2-(3-oxa-8-azabicyclo[3.2.1]octan-8-yl)benzoic acid] | 8 | – |
| O=C(O)c1cc(F)c(-c2cccc3c2OCN(C(=O)c2c(Cl)cc(N4CC(O)(C(F)(F)F)C4)cc2Cl)C3)cc1N1C2CCC1COC2 [Compound 1-12, 4-[3-[2,6-Dichloro-4-[3-hydroxy-3-(trifluoromethyl)azetidin-1-yl]benzoyl]-2,4-dihydro-1,3-benzoxazin-8-yl]-5-fluoro-2-(3-oxa-8-azabicyclo[3.2.1]octan-8-yl)benzoic acid] | 16 | – |
| CC1C(C)N(c2cc(Cl)c(C(=O)N3COc4c(cccc4-c4cc(N5C6CCC5COC6)c(C(=O)O)cc4F)C3)c(Cl)c2)CCN1C (centres unmarked) [Compound 9-24, 4-[3-[2,6-Dichloro-4-(2,3,4-trimethylpiperazin-1-yl)benzoyl]-2,4-dihydro-1,3-benzoxazin-8-yl]-5-fluoro-2-(3-oxa-8-azabicyclo[3.2.1]octan-8-yl)benzoic acid] | 2.5 | – |
| Cn1cc(-c2cc(Cl)c(C(=O)N3COc4c(cccc4-c4ccc(-c5nnn[nH]5)c(N5CCOCC5)c4)C3)c(Cl)c2)cn1 [Compound 16-5, [2,6-Dichloro-4-(1-methylpyrazol-4-yl)phenyl]-[8-[3-morpholin-4-yl-4-(1H-tetrazol-5-yl)phenyl]-2,4-dihydro-1,3-benzoxazin-3-yl]methanone] | 200 | – |
| Cn1cc(-c2cc(Cl)c(C(=O)N3CSc4c(cccc4-c4ccc(C(=O)O)c(N5CCOCC5)c4)C3)c(Cl)c2)cn1 [Compound 17-21, 4-[3-[2,6-Dichloro-4-(1-methylpyrazol-4-yl)benzoyl]-2,4-dihydro-1,3-benzothiazin-8-yl]-2-morpholin-4-ylbenzoic acid] | 22 | – |
| O=C(O)c1cc(F)c(-c2cccc3c2OCN(C(=O)c2c(Cl)cc(N4CC5(CN(CC(F)(F)F)C5)C4)cc2Cl)C3)cc1N1C2CCC1COC2 [Compound 7-5, 4-[3-[2,6-Dichloro-4-[6-(2,2,2-trifluoroethyl)-2,6-diazaspiro[3.3]heptan-2-yl]benzoyl]-2,4-dihydro-1,3-benzoxazin-8-yl]-5-fluoro-2-(3-oxa-8-azabicyclo[3.2.1]octan-8-yl)benzoic acid] | 3.7 | – |
| COCC1CN(c2cc(Cl)c(C(=O)N3COc4c(cccc4-c4cc(N5CCOCC5)c(C(=O)O)cc4F)C3)c(Cl)c2)CCN1C (centres unmarked) [Compound 4-30, 4-[3-[2,6-Dichloro-4-[3-(methoxymethyl)-4-methylpiperazin-1-yl]benzoyl]-2,4-dihydro-1,3-benzoxazin-8-yl]-5-fluoro-2-morpholin-4-ylbenzoic acid] | 1.1 | – |
| O=C(O)c1cc(F)c(-c2cccc3c2OCN(C(=O)c2c(Cl)cc(OCC4CCOCC4)cc2Cl)C3)cc1N1C2CCC1COC2 [Compound 4-41, 4-[3-[2,6-Dichloro-4-(oxan-4-ylmethoxy)benzoyl]-2,4-dihydro-1,3-benzoxazin-8-yl]-5-fluoro-2-(3-oxa-8-azabicyclo[3.2.1]octan-8-yl)benzoic acid] | 4.7 | – |
| O=C(O)c1cc(F)c(-c2cccc3c2OCN(C(=O)c2c(Cl)cc(N4CCN5CCOC[C@H]5C4)cc2Cl)C3)cc1N1C2CCC1COC2 [Compound 4-14, 4-[3-[4-[(9aR)-3,4,6,7,9,9a-Hexahydro-1H-pyrazino[2,1-c][1,4]oxazin-8-yl]-2,6-dichlorobenzoyl]-2,4-dihydro-1,3-benzoxazin-8-yl]-5-fluoro-2-(3-oxa-8-azabicyclo[3.2.1]octan-8-yl)benzoic acid] | 9 | – |
| COC1(C(F)F)CN(c2cc(Cl)c(C(=O)N3COc4c(cccc4-c4cc(N5C6CCC5COC6)c(C(=O)O)cc4F)C3)c(Cl)c2)C1 [Compound 1-8, 4-[3-[2,6-Dichloro-4-[3-(difluoromethyl)-3-methoxyazetidin-1-yl]benzoyl]-2,4-dihydro-1,3-benzoxazin-8-yl]-5-fluoro-2-(3-oxa-8-azabicyclo[3.2.1]octan-8-yl)benzoic acid] | 2.2 | – |
| O=C(O)c1cc(F)c(-c2cccc3c2OCN(C(=O)c2c(Cl)cc(N4CC5(CCCO5)C4)cc2Cl)C3)cc1N1C2CCC1COC2 [Compound 1-1, 4-[3-[2,6-Dichloro-4-(5-oxa-2-azaspiro[3.4]octan-2-yl)benzoyl]-2,4-dihydro-1,3-benzoxazin-8-yl]-5-fluoro-2-(3-oxa-8-azabicyclo[3.2.1]octan-8-yl)benzoic acid] | 2.8 | – |
| C[C@@H]1COCCN1C1CN(c2cc(Cl)c(C(=O)N3COc4c(cccc4-c4cc(N5C6CCC5COC6)c(C(=O)O)cc4F)C3)c(Cl)c2)C1 [Compound 5-15, 4-[3-[2,6-Dichloro-4-[3-[(3R)-3-methylmorpholin-4-yl]azetidin-1-yl]benzoyl]-2,4-dihydro-1,3-benzoxazin-8-yl]-5-fluoro-2-(3-oxa-8-azabicyclo[3.2.1]octan-8-yl)benzoic acid] | 3.1 | – |
| O=C(O)c1cc(F)c(-c2cccc3c2OCN(C(=O)c2c(Cl)cc(N4CC5CCC(C4)N5C4CC4)cc2Cl)C3)cc1N1C2CCC1COC2 [Compound 9-20, 4-[3-[2,6-Dichloro-4-(8-cyclopropyl-3,8-diazabicyclo[3.2.1]octan-3-yl)benzoyl]-2,4-dihydro-1,3-benzoxazin-8-yl]-5-fluoro-2-(3-oxa-8-azabicyclo[3.2.1]octan-8-yl)benzoic acid] | 4.6 | – |
| COC1(C(F)(F)F)CN(c2cc(Cl)c(C(=O)N3COc4c(cccc4-c4cc(N5C6CCC5COC6)c(C(=O)O)cc4F)C3)c(Cl)c2)C1 [Compound 6-2, 4-[3-[2,6-Dichloro-4-[3-methoxy-3-(trifluoromethyl)azetidin-1-yl]benzoyl]-2,4-dihydro-1,3-benzoxazin-8-yl]-5-fluoro-2-(3-oxa-8-azabicyclo[3.2.1]octan-8-yl)benzoic acid] | 2.8 | – |
